# From patent US20080226596A1, “Therapeutic compositions and methods useful in treating hepatitis” (priority 2006, published 2008)
# Key:
# Baf3 cells = assay: Baf3 cell proliferation assay; assay type: cell-based, murine
# Method: The murine hematopoietic cell line Baf3 was maintained in RPMI 1640 medium supplemented with 10% fetal calf serum (FCS) and murine IL-3 (20 units/ml) as described previously in Damen et al., J. Biol. Chem. 270, 23402 (1995). Human myeloid cell line TF-1 was maintained in RPMI 1640 supplemented with 10% FCS and 40 ng/ml of recombinant human GM-CSF as described previously in Thomassen et al., Clin. Immunol. 95, 85 (2000). For cell proliferation assays, cells were washed in 10% FCS medium twice, resuspended in 10% FCS medium, incubated at 37° C. for 16 hours, and then cultured at 37° C. in 10% FCS medium containing various amounts of cytokines, sodium stibogluconate, or potassium antimonyl tartrate for 3-6 days as indicated. The cell numbers in proliferation assays were determined by an MTT assay or by microscopic cell counting as indicated.
# LoVo cells = assay: LoVo colon cancer cell growth, MTT assay; assay type: cell-based, human; conditions: 100 μg/ml, day 6
# Method: NIH3T3 (Yi, et al., Blood 85, 87 (1995)), WM9 (Forsberg, et al., Proc. Nat. Acad Sci. USA 90, 393 (1993)), DU145 (Mickey, et al., Cancer Res. 37, 4049 (1977)), LoVo (Drewinko, et al., Cancer Res. 36, 467 (1976)), HEY (Buick, et al., Cancer Res. 45, 3668 (1985)), U251 (Yoshida, et al., Cancer 50, 410 (1982)), A549 (Giard, et al., J. Natl. Cancer Inst. 51, 1417 (1973)) and SK-N-SH (Helson, et al., Cancer Res. 35, 2594 (1975)) cell lines have been described and were cultured in RPMI 1640 supplemented with 10% fetal calf serum (FCS). For measurement of sodium stibogluconate effects on cell growth in vitro, cells were cultured in the absence (−) or presence (+) of various amounts of sodium stibogluconate for 6 days with viable cells quantified by MTT assays (Mosmann, J. Immunol. Methods 65, 55 (1983)). Percentages of growth inhibition by sodium stibogluconate were calculated (.+−.x
# [1] = test system: Stat1 tyrosine phosphorylation; assay: IFN-alpha-induced Stat1 tyrosine phosphorylation in human cancer cell lines; assay type: cell-based
# Method: Cell lysates were prepared by lysing cells in cold lysis buffer for 30 min and cleared by centrifuging at 14,000 rpm at 4° C. for 15 min. For SDS-PAGE, cell lysates were mixed with equal volume of 2×SDS-PAGE sample buffer, heated at 90° C. for 5 min and separated in 10% SDS-PAGE gels. Cellular proteins in SDS-PAGE gels were transferred to nitrocellulose membrane (Schleicher & Schuell, Keene, N.H.), blocked in 5% milk, probed with antibodies and detected by using an enhanced chemiluminescence kit (ECL, Amersham, Arlington Heights, Ill.).
# Jurkat cells = assay: IFN-gamma secretion by Jurkat cells, ELISA; assay type: cell-based, human; conditions: 16 hrs
# Method: Jurkat cells were cultured in the absence or presence of various amounts of SSG for 16 hours. The cells and culture medium supernatants were separated by centrifugation (1,000 g, 10 min). The amounts of IFN-gamma in the culture medium supernatants were quantified using an ELISA kit (R.D. system, Minneapolis, Minn.) following the manufacturer's protocol.
# intracellular Flag-PRL-1 = biological target: T1, intracellular Flag-PRL-1 (Homo sapiens, UniProt Q93096); assay: Immunocomplex PTPase assay, Flag-PRL-1 NIH3T3 transfectants; assay type: cell-based, mouse; conditions: 5 min treatment
# T1 construct: expressed in transfected cells; host or cells: NIH3T3 (A51) or WM9 (A61) transfectants, pBabepuro vector
# Method: Immunocomplex PTPase assays were performed to assess the effects of sodium stibogluconate on intracellular PTPases. Cells were untreated or treated with sodium stibogluconate for 5 minutes, washed with fresh medium and then lysed in cold lysis buffer (50 mM Tris, pH 7.4; 150 mM NaCl; 1% NP40; 2 mM PMSF; 20, g/ml of Aprotinin). The lysates were incubated with an anti-Flag antibody in immunoprecipitation assays. The immunocomplexes were collected with protein G sepharose beads (Pharmacia) and washed in cold lysis buffer for 4 times. […] 100 µL of malachite green solution (UBI) was added to each reaction prior to measurement of OD660 to quantify the amounts of free phosphate cleaved by the PTPases from the peptide substrate (Pathak et al., J. Imumol. 167, 3391 (2001)). The remaining 10% contents of individual samples were analyzed by SDS-PAGE/Western blotting to quantify the relative amounts of the phosphatase proteins. […]
# The effects of sodium stibogluconate on intracellular PTPases were assessed using NIH3T3 or WM9 transfectants. […]
# DU145R cells = assay: DU145R cell growth, MTT assay; assay type: cell-based, human; conditions: day 6, compared with parental DU145
# Method: DU145 cells were cultured in the presence of sodium stibogluconate (100 µg/ml) in 48 well plates for 3 weeks. Cells from a well containing a single colony were transferred to flasks, cultured in sodium stibogluconate-free medium for 3 weeks and used as DU145R cells for further characterization. Growth of DU145R cells in the absence or presence of sodium stibogluconate in day 6 culture was determined by MTT assays. cDNAs of the coding region of PRLs were derived by RT-PCR from DU145 and DU145R cells and sequenced using primers described below.
# T1 sequence (Q93096 whole entry): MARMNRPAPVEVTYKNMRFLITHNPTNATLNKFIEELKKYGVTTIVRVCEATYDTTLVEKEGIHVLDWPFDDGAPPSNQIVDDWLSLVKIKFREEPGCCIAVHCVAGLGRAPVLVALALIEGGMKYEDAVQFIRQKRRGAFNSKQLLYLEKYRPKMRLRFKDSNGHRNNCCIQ
smiles,measurement,setting,value
O.O.O.O.O.O.O.O.O.O=C([O-])[C@@H]1[O][Sb]2([O-])([O][Sb]34([OH])[O][C@H]([C@H](O)CO)[C@H]([O]3)[C@H](C(=O)[O-])[O]4)[O][C@H]([C@H](O)CO)[C@@H]1[O]2.[Na+].[Na+].[Na+] [sodium stibogluconate],IL-3-induced Baf3 growth,"Baf3 cells; 1,000 μg/ml",suppressed IL-3-induced Baf3 growth
same,Baf3 proliferation/viability,"Baf3 cells; absence of IL-3, day 3 culture",failed to support cell proliferation or maintain cell viability
same,killing of LoVo cells,LoVo cells,near-complete cell killing
same,Stat1 tyrosine phosphorylation by drug alone,"[1]; DR cells, absence of IFN-alpha",failed to induce Stat1 tyrosine phosphorylation
same,IFN-alpha-induced Stat1 tyrosine phosphorylation,"[1]; DU145 cells, 5 hours post-stimulation",Enhanced
same,IFN-alpha-induced Stat1 tyrosine phosphorylation,"[1]; WM9 cells, 5 hours post-stimulation",Enhanced
same,IFN-alpha-induced Stat1 tyrosine phosphorylation,[1]; WM35 cells,failed to enhance
same,IFN-alpha-induced Stat1 tyrosine phosphorylation,[1]; WiT49-N1 cells,failed to enhance
same,IFN-gamma secretion by Jurkat T cells,Jurkat cells,increased amounts of IFN-gamma
same,PTPase activity of Flag-PRL-1 immunocomplexes from treated cells,intracellular Flag-PRL-1,little PTPase activities
same,growth of DU145R cells with sodium stibogluconate,DU145R cells,growth resistance to sodium stibogluconate
